Here are results for twelve compounds from patent US6194143A, “Substrates for human cytomegalovirus protease” (Boehringer Ingelheim (Canada) Ltd., priority 1998, dated 2001).

The target of data set [1] is T1, HCMV protease (Human cytomegalovirus, UniProt P16753).
T1 construct: UL80 gene from HCMV strain AD169, aa 1-256; made in house
The data set is described as follows: Inhibitory activity on HCMV protease (IC50). It counts as biochemical. Here is the method: The substrate of formula 1 was used to implement a 100 nM HCMV protease assay for routine screening of inhibitors. However rapid progress in the structure-activity relationship (SAR) studies eventually required a reduction of the enzyme concentration in order to differentiate between potent compounds. Indeed an IC50 value cannot be lower than half the enzyme concentration in the assay. Reducing the enzyme therefore permits accurate determination of the potency of active inhibitors.
The large reduction in Km was responsible for this substantial increase in activity and reflected the anticipated improvement in binding. The inhibitory activity of the N-terminal product ABz-Tbg-Tbg-Asn(Me)2 -Ala-OH was determined to establish if it could interfere with the course of the reaction.

Data set [2] addresses T1, HCMV protease. Kind of data set: Mode of inhibition by Dixon-plot analysis with substrate 2. It counts as biochemical. The following applies: Dixon-plot of initial rate of hydrolysis at different substrate 2 and inhibitor concentrations; substrate 0.4 to 2.5 Km. The source says: FIG. 1 illustrates the inhibitory effect of a peptide inhibitor on HCMV protease at various concentrations of an improved substrate of this application.
The convenient use of fluorescence in this experiment was possible since a range of substrate concentrations from 0.4 to 2.5 Km was permitted. Substrate 1 could not be used in this application since its Km value is well above the inner filter limit.

The next data set in a line: Solubility of substrate. It counts as physicochemical.
Data set [3] in a line: Stability of 10 mM DMSO stock solutions at 4° C. It counts as physicochemical. As to conditions: 10 mM in DMSO, stored at 4° C. On the procedure: (§1) Stock solutions (10 mM) in DMSO of the compounds prepared in examples 2, 3, 4, 5 and 6 were stored at 4° C. […] Aliquoted samples of HCMV protease 50 μM (1.4 mg/ml) were kept at -80° C. in storing buffer without detectable loss of activity over an extended period of more than a year. The calculated molecular mass of wild-type HCMV protease was 28042 Da. The concentration of enzyme on which the calculations of the turnover number, kcat, and the specificity constant, kcat /Km, were derived was expressed in terms of total monomer concentration.

Data set [4] concerns the target T1, HCMV protease. Kind of data set: HCMV protease fluorometric assay of substrate cleavage. It counts as biochemical. As to conditions: for kcat/Km, fold greater than for the substrate of formula 1 (unoptimized substrate): compared with substrate of formula 1. On the procedure:
(§2) Preparation of recombinant wild-type HCMV protease PCR amplified HCMV protease gene from genomic DNA (UL80 gene from HCMV strain AD169, aa 1-256) was cloned in the NdeI/BamHl restriction sites of the plasmid vector pET-17b and expressed in Escherichia Coli strain BL21(DE3)pLYSs. Following expression by induction with IPTG, cells were harvested and resuspended in lysis buffer (50 mM Tris/HCl pH 8.0, 1 mM EDTA, 1 mM DTT, 25 mM NaCl, and 1 mM PMSF) and sonicated for complete lysis and DNA breakage. Protease inclusion bodies were harvested by centrifugation. The harvested material was washed twice in lysis buffer containing 0.1% nonaethylene glycol octylphenyl ether (NP-40, Sigma Chemical Co.). Solubilization and denaturation of the harvested material were performed by resuspending the inclusion bodies in 100 mM Tris/HCl pH 8.0, 1 mM EDTA, 100 mM DTT, 50 mM NaCl, and 7 M urea and incubating at 37° C. for 2 h. After centrifugation to eliminate insoluble matter, the supernatant was extensively dialyzed in 50 mM MES pH 5.0, 0.1 mM EDTA, 10 mM DTT, and 7 M urea for cation exchange chromatography on Resource S column. The resulting pool of protease-containing fractions was then dialyzed in 25 mM Tris/HCl pH 7.8, 1 mM EDTA, and 1 M urea and diluted to ≈100 μg/ml to which 0.2 mM oxidized glutathione and 2 mM reduced glutathione were added. Incubation was performed overnight at 4° C. with gentle shaking and renaturation was then completed by extensive dialysis in 25 mM Tris/HCl pH 7.8, 1 mM EDTA, 1 mM DTT, and 100 mM NaCl followed by dialysis in storing buffer (20 mM acetate pH 5.0, 0.1 mM EDTA, 1 mM DTT, and 50 mM NaCl) before concentration of the sample to give the desired protease.
Stock solutions (10 mM) in DMSO of the compounds prepared in examples 2, 3, 4, 5 and 6 were stored at 4° C. […] Aliquoted samples of HCMV protease 50 μM (1.4 mg/ml) were kept at -80° C. in storing buffer without detectable loss of activity over an extended period of more than a year. The calculated molecular mass of wild-type HCMV protease was 28042 Da. […]

Data set [5] concerns HCMV protease. As to conditions: prior literature reports; cited from earlier work.
Data set [6] has as its target T1, HCMV protease. It counts as biochemical. As to conditions: for Km / kcat / kcat/KM (specificity constant): 200-500 nM HCMV protease, determined by HPLC. On the procedure:
as §2, §1
HPLC analysis. Specificity constant, kcat /Km, and individual parameters kcat & Km for the peptide substrate of Example 2 were determined by HPLC monitoring of the initial rate of appearance of the N-terminus cleavage product at various substrate concentrations. Incubation buffer contained 50 mM Tris/HCl pH 8, 0.5 M Na2 SO4, 50 mM NaCl, 0.1 mM EDTA, 1 mM TCEP, 3% DMSO v/v, & 0.05% w/v casein to which 20-500 μM substrate was added. Following equilibration at 30° C., the reactions were initiated by addition of 50 nM HCMV protease (total monomer concentration) from a 2.5 μM stock solution in assay buffer and quenched at regular intervals with 1% TFA up to ≈25% total hydrolysis. The aliquots were injected on a C8 reversed-phase column using a linear gradient of acetonitrile in aqueous 3mM SDS containing 0.05% H3 PO4 (22 to 28% acetonitrile at 2 min, to 30% at 4 min, to 50% at 6 min at a constant flow rate of 4 ml/min). A calibration curve of the N-terminus product was used to estimate the extent of the conversion (retention time=2.7 min). The data was fitted to the non-linear regression analysis of the Michaelis-Menten equation by the kinetic software GRAFIT (Grafit, Erithacus Software Ltd, 1989-1992, Version 3.0, Leatherbarrow, R. J., London, U.K.). A similar protocol was adopted for the peptide substrates of Examples 5 and 6. In this case the enzyme concentration used was respectively 500 nM and 200 nM. The HPLC gradient was 25 to 38% acetonitrile at 11 min, to 100% at 13 min at a constant flow rate of 4 ml/min.

Square brackets hold non-standard residues; d marks the D form. Peptide text beside a SMILES is read from it. * marks the point of attachment. Tyr(3-NO2) = N[C@@H](Cc1ccc(O)c([N+](=O)[O-])c1)C(=O)O; AMC = Cc1cc(=O)oc2cc(N*)ccc12; Tle = CC(C)(C)[C@H](N)C(=O)O; 2Abz = Nc1ccccc1C(=O)O

T1 sequence (P16753 1-256): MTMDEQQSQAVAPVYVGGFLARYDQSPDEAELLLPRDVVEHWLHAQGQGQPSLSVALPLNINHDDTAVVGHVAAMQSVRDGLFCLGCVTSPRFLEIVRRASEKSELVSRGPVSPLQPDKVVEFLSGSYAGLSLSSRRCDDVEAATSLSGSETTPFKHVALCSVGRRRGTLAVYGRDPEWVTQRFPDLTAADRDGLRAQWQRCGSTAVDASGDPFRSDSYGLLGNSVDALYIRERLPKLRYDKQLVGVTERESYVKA

As to `C[C@H](NC(=O)[C@H](CC(=O)N(C)C)NC(=O)[C@@H](NC(=O)[C@@H](NC(=O)c1ccccc1N)C(C)(C)C)C(C)(C)C)C(=O)O` [ABz-Tbg-Tbg-Asn(Me)2 -Ala-OH] (H-[2Abz][Tle][Tle]D(NMe2)A-OH), on HCMV protease [1], the IC50 is above 75 µM.

Regarding `CC(NC(=O)[C@H](CC(=O)N(C)C)NC(=O)[C@@H](NC(=O)CC(C)(C)C)C(C)(C)C)C(=O)C(=O)NCc1ccccc1` (stereo partly drawn) [DATbg-Tbg-Asn(Me2)-Ala-CONHCH2Ph], the mode of inhibition result at HCMV protease [2] is recorded as “competitive”.

With `CC(C)C[C@H](NC(=O)[C@H](CCCNC(=N)N)NC(=O)[C@H](CO)NC(=O)[C@H](CO)NC(=O)[C@H](C)NC(=O)[C@H](CC(N)=O)NC(=O)[C@@H](NC(=O)[C@@H](NC(=O)c1ccccc1N)C(C)C)C(C)C)C(=O)N[C@@H](Cc1ccc(O)c([N+](=O)[O-])c1)C(=O)N[C@@H](CCCNC(=N)N)C(=O)O` [Substrate 1] (H-[2Abz]VVNASSRL[Tyr(3-NO2)]R-OH), the solubility entry in “Solubility of substrate” was “limited solubility”. In data set [3], the “stability of compound in stock solution” value is listed as “stable for several weeks”.

Consider `CC(C)C[C@H](NC(=O)[C@H](CCCNC(=N)N)NC(=O)[C@H](CO)NC(=O)[C@H](CO)NC(=O)[C@H](C)NC(=O)[C@H](CC(=O)N(C)C)NC(=O)[C@@H](NC(=O)[C@@H](NC(=O)c1ccccc1N)C(C)(C)C)C(C)(C)C)C(=O)N[C@@H](Cc1ccc(O)c([N+](=O)[O-])c1)C(=O)N[C@@H](CCCNC(=N)N)C(=O)O` [Substrate 2, ABz-Tbg-Tbg-Asn(Me)2 -Ala-Ser-Ser-Arg-Leu-Tyr(3-NO2)-Arg-OH] (H-[2Abz][Tle][Tle]D(NMe2)ASSRL[Tyr(3-NO2)]R-OH), for which the “kcat/Km, fold greater than for the substrate of formula 1 (unoptimized substrate)” value on HCMV protease [4] was 60 fold. For the same compound, the “stability of compound in stock solution” value in data set [3] is “stable for several weeks”.

For the compound `CC(=O)N[C@H](C(=O)N[C@H](C(=O)N[C@@H](CC(=O)N(C)C)C(=O)N[C@@H](C)C(=O)Nc1ccc2c(C)cc(=O)oc2c1)C(C)(C)C)C(C)(C)C` [Substrate 3, N-Acetyl-Tbg-Tbg-Asn(Me)2 -Ala-AMC] (Ac-[Tle][Tle]D(NMe2)A-{AMC}), the “kcat/Km, fold greater than for the substrate of formula 1 (unoptimized substrate)” value at HCMV protease [4] stood at 10 fold. Besides, the “kcat/Km, fold smaller than the substrate of formula 2” value on HCMV protease [4] (compared with substrate of formula 2) turned out to be 6 fold. Moreover, the “stability of compound in stock solution” value in data set [3] was “stable for several weeks”.

As to ABz-GVVNA-SSRLAY(3-NO2)G, in the data set on HCMV protease [5], the Michaelis constant (Km) is 134 µM, the kcat is 0.37 s⁻¹ and the kcat/KM is 2750 M⁻¹ s⁻¹.

In the case of DABCYL-RGVVNA-SSRLA-EDANS, the kcat/KM in the data set with HCMV protease [5] was 796 M⁻¹ s⁻¹.

Regarding DABCYL-RRVVNA-S-Aba-RLD(EDANS)-NH2, the Km in the data set with HCMV protease [5] is 3 µM.

Y(3-NO2)GVVNA-SSRLA-ABz-K: in the data set with HCMV protease [5], the kcat/KM is 3167 M⁻¹ s⁻¹.

On to “d-Biotin-Arg-Gly-Tbg-Tbg-Asn (Me) 2 -Ala-Ser-Ser-Arg-Leu-Ala-Tyr-NH2 [Substrate 5]”, for which, at HCMV protease [6], the Km was 19 µM, the kcat worked out at 0.045 s⁻¹ and the “kcat/KM (specificity constant)” value amounted to 2370 M⁻¹ s⁻¹.

Consider “d-Biotin-Arg-Gly-Tbg-Tbg-Asn(Me)2 -Ala-Ser-Ser-Arg-Leu-Ala-Tyr(^125,)-NH2 [Substrate 13a]”, for which, at HCMV protease [6], the Km was found to be 19 µM, the kcat amounted to 0.045 s⁻¹ and the “kcat/KM (specificity constant)” value was 2370 M⁻¹ s⁻¹. Also, on HCMV protease [6] (as measured by HPLC), the “kcat/KM, fold greater compared to the substrate of formula 12a” value worked out at 12 fold.

For the compound “d-Biotin-Arg-Gly-Val-Val-Asn-Ala-Ser-Ser-Arg-Leu-Ala-Tyr-NH2 [Substrate 4]”, on HCMV protease [6], the Michaelis-Menten constant (Km) was found to be 422 µM, the turnover number (kcat) stood at 0.086 s⁻¹ and the “kcat/KM (specificity constant)” value is 205 M⁻¹ s⁻¹.
